Laboratory results taken from publication PMC7998669, “7-(2-Anilinopyrimidin-4-yl)-1-benzazepin-2-ones Designed by a “Cut and Glue” Strategy Are Dual Aurora A/VEGF-R Kinase Inhibitors” (Molecules, 2021).

Experiments:
Assay in all cases: NCI cancer cell line screen (sulforhodamin B)
Format in all cases: cell-based
U251 = details: Homo sapiens, U-251; U251, CNS; 48 h; read-out: log10 GI50 (converted)
Description: (§1) The new dual Aurora A/VEGF-R inhibitors 2e and 2n were selected by the National Cancer Institute for screening in its broad cancer cell line panel. The NCI in vitro assay is performed by incubation of cells with test compounds for 48 h and subsequent cell fixation with trichloroacetic acid. The pink dye sulforhodamin B is added, which binds to the proteins of the fixed cells. After washing and solubilizing the bound stain, the optical density is measured spectrophotometrically to determine the relative proliferation of treated and untreated cells.
(§2) Simultaneous inhibition of the Aurora A kinase and the VEGF-R2/3 receptor kinases may represent an interesting dual activity for the treatment of cancer. The National Cancer Institute selected the compounds 2e and 2n as representatives with particularly high inhibitory activity on the above kinases for testing in the IVCLS (in vitro cell line screening). In this screening, compounds are tested for antiproliferative activity on about 60 in vitro cultivated tumor cell lines. Based on this very broad screening on cell lines from nine tumor entities the general antiproliferative potency of compounds is determined. In addition, the bioinformatic tool COMPARE allowed one to draw conclusions on the molecular target of the compounds from the activity patterns on the different cell lines. Similar molecular mechanisms of action of two compounds are assumed if a Pearson correlation coefficient (PCC) of > 0.6 is calculated by COMPARE [52, 53]. […] The selectivity profile of the two compounds is not very pronounced given the overall very similar proliferation inhibition values across all cell lines. A COMPARE analysis determined a PCC = 0.61 for the patterns of test compounds 2e and 2n, which is consistent with an analogous mechanism of action. However, whether this mechanism is actually based on the inhibition of the inhibited Aurora kinases and VEGF receptor kinases cannot be deduced from these profiles.

CAKl-1 = details: Homo sapiens; CAKl-1, Renal; 48 h; read-out: log10 GI50 (converted)
Description: as §1, §2

HL-60(TB) = details: Homo sapiens, Leukemia, 48 h, read-out: log10 GI50 (converted)
Description: as §1, §2

A498 = details: Homo sapiens; A498, Renal; 48 h; read-out: log10 GI50 (converted)
Description: as §1, §2

OVCAR-8 = details: Homo sapiens; OVCAR-8, Ovarian; 48 h; read-out: log10 GI50 (converted)
Description: as §1, §2

UACC-257 = details: Homo sapiens; UACC-257, Melanoma; 48 h; read-out: log10 GI50 (converted)
Description: as §1, §2

BT-549 = details: Homo sapiens; BT-549, Breast; 48 h; read-out: log10 GI50 (converted)
Description: as §1, §2

PC-3 = details: Homo sapiens; PC-3, Prostate; 48 h; read-out: log10 GI50 (converted)
Description: as §1, §2

NCI/ADR-RES = details: Homo sapiens, Ovarian, 48 h, read-out: log10 GI50 (converted)
Description: as §1, §2

SR = details: Homo sapiens, Leukemia, 48 h, read-out: log10 GI50 (converted)
Description: as §1, §2

T-47D = details: Homo sapiens, T47D, Breast, 48 h, read-out: log10 GI50 (converted)
Description: as §1, §2

KM12 = details: Homo sapiens; KM12, Colon; 48 h; read-out: log10 GI50 (converted)
Description: as §1, §2

HCT-15 = details: Homo sapiens; HCT-15, Colon; 48 h; read-out: log10 GI50 (converted)
Description: as §1, §2

OVCAR-5 = details: Homo sapiens; OVCAR-5, Ovarian; 48 h; read-out: log10 GI50 (converted)
Description: as §1, §2

SK-OV-3 = details: Homo sapiens; SK-OV-3, Ovarian; 48 h; read-out: log10 GI50 (converted)
Description: as §1, §2

SK-MEL-28 = details: Homo sapiens; SK-MEL-28, Melanoma; 48 h; read-out: log10 GI50 (converted)
Description: as §1, §2

RXF 393 = details: Homo sapiens; RXF 393, Renal; 48 h; read-out: log10 GI50 (converted)
Description: as §1, §2

HOP-62 = details: Homo sapiens; HOP-62, NSCL; 48 h; read-out: log10 GI50 (converted)
Description: as §1, §2

M14 = details: Homo sapiens; M14, Melanoma; 48 h; read-out: log10 GI50 (converted)
Description: as §1, §2

786-0 = details: Homo sapiens; 786-0, Renal; 48 h; read-out: log10 GI50 (converted)
Description: as §1, §2

IGROV1 = details: Homo sapiens, IGROV-1; IGROV1, Ovarian; 48 h; read-out: log10 GI50 (converted)
Description: as §1, §2

SF-539 = details: Homo sapiens; SF-539, CNS; 48 h; read-out: log10 GI50 (converted)
Description: as §1, §2

TK-10 = details: Homo sapiens; TK-10, Renal; 48 h; read-out: log10 GI50 (converted)
Description: as §1, §2

K-562 = details: Homo sapiens, K562; K-562, Leukemia; 48 h; read-out: log10 GI50 (converted)
Description: as §1, §2

LOX IMVI = details: Homo sapiens, Melanoma, 48 h, read-out: log10 GI50 (converted)
Description: as §1, §2

MCF7 = details: Homo sapiens; MCF7, Breast; 48 h; read-out: log10 GI50 (converted)
Description: as §1, §2

U0-31 = details: Homo sapiens; U0-31, Renal; 48 h; read-out: log10 GI50 (converted)
Description: as §1, §2

SMILES	GI50 (U251) [µM]	GI50 (CAKl-1) [µM]	GI50 (HL-60(TB)) [µM]	GI50 (A498) [µM]	GI50 (OVCAR-8) [µM]	GI50 (UACC-257) [µM]	GI50 (BT-549) [µM]	GI50 (PC-3) [µM]	GI50 (NCI/ADR-RES) [µM]	GI50 (SR) [µM]	GI50 (T-47D) [µM]	GI50 (KM12) [µM]	GI50 (HCT-15) [µM]	GI50 (OVCAR-5) [µM]	GI50 (SK-OV-3) [µM]	GI50 (SK-MEL-28) [µM]	GI50 (RXF 393) [µM]	GI50 (HOP-62) [µM]	GI50 (M14) [µM]	GI50 (786-0) [µM]	further results
O=C1CCCc2cc(-c3ccnc(Nc4ccc(O)cc4)n3)ccc2N1 [Compound 2e, 7-[2-(4-Hydroxyanilino)pyrimidin-4-yl]-1,3,4,5-tetrahydro-2H-1-benzazepin-2-one]	6.03	4.17	1.38	4.79	4.07	4.17	5.13	4.9	> 100	1.32	1.55	2.57	3.24	6.46	3.02	5.75	1.86	11	4.07	4.37	GI50 (IGROV1): 2.51 µM; GI50 (SF-539): 4.17 µM; GI50 (TK-10): 3.8 µM; GI50 (K-562): 3.72 µM; GI50 (LOX IMVI): 3.39 µM; GI50 (MCF7): 4.27 µM; GI50 (U0-31): 1.74 µM
COc1ccc(Nc2nccc(-c3ccc4c(c3)CCCC(=O)N4)n2)cc1O [Compound 2n, 7-[2-(3-Hydroxy-4-methoxyanilino)pyrimidin-4-yl]-1,3,4,5-tetrahydro-2H-1-benzazepin-2-one]	10.2	5.62	3.16	37.2	9.77	14.8	5.62	12.6	14.1	3.16	4.07	4.79	4.57	8.71	5.25	9.12	2.69	8.13	4.37	4.57	GI50 (IGROV1): 3.02 µM; GI50 (SF-539): 4.47 µM; GI50 (TK-10): 23.4 µM; GI50 (K-562): 4.27 µM; GI50 (LOX IMVI): 5.5 µM; GI50 (MCF7): 5.13 µM; GI50 (U0-31): 3.02 µM
